Data: a melting point compilation (Tetko et al.; mined from patent text by program, amines drawn as free bases though some values may be those of a salt)

Row | melting point [°C] | SMILES
1 | 76.1 | CCOC(=O)c1ccc(OCc2cnccn2)cc1
2 | > 300 | CCOC(=O)c1nc(O)n2c1c(=O)n(C)c1cc(C(F)(F)F)ccc12
3 | 76 to 78 | Nc1csc(-c2ccccc2)c1
4 | 52 to 55 | COC(=O)CCCC(=O)c1ccccc1C=CBr
5 | 173 to 176 | Nc1nc(N)c(-c2cccc(Cl)c2Cl)c(CO)n1
6 | 144 to 146 | CC(=O)c1ccc(OCCOc2ccc3ccccc3c2)cc1F
7 | 162 to 164 | CSc1ncc(Oc2cnccc2C)c(=O)[nH]1
8 | 297 to 300 | COc1ccc(OC)c2c1C(=O)c1c(O)ccc(O)c1C2=O
9 | 155 | COc1ccc(S(=O)(=O)N2C(=O)C(c3ccccc3OC)(N3Cc4ccccc4C[C@H]3C(=O)N(C)C)c3cc(Cl)c(Cl)cc32)c(OC)c1 (some centres not stated)
10 | 173 to 175 | CC1CCN(c2ccccc2C(C)C(C(N)=O)c2ccc(C(=O)O)cc2)CC1 (configuration not stated)
11 | 77 to 80 | CC(=NOC(C)C)c1ccc2c(c1)ncn2-c1cccc(-c2cccnc2)c1
12 | 182 | C=C(C)c1ccc(-c2ccc(C(=C)C)cc2)cc1
13 | 126 to 130 | O=C1NN=CC1=CNCCC(F)=C(F)F
14 | 154 to 156 | CC(C)NC(=O)N1c2ccc(S(=O)(=O)n3cc(-c4ccccc4)[nH]c3=O)cc2CC1C (configuration not stated)
15 | 125 | Cc1ccc(Nc2cc(-c3ccccc3)nc(-c3ccccc3)c2)cc1
16 | 176 to 177 | c1cncc(-c2cc3ccccc3[nH]2)c1
17 | 140 to 144 | CC(C)CC1NCC(C)(C)NC1=O (configuration not stated)
18 | 157 to 159 | Fc1ccc(CNc2nc(OCc3ccccc3)nc(OCc3ccccc3)n2)cc1
19 | 96 to 99 | CS(=O)(=O)c1ccc(-c2[nH]nc(OC3CCCC3=O)c2-c2ccc(F)cc2)cc1 (configuration not stated)
20 | 130 to 132 | CCCCCCCCCCOc1ccc(C(=O)O)cc1C(C)(C)C
21 | 106 to 108 | CCCCOCCOc1ccc(-c2ccc(N3CCCCC3C)c(C=CC(=O)O)c2)cc1 (configuration not stated)
22 | 138 to 141 | O=C(c1ccc(Cl)c(Cl)c1)N(CCCCn1ccnc1)C1=Nc2cccc3cccc1c23
23 | 53 to 54 | O=C(C1(F)CC1Cc1ccc(Cl)cc1)C1(F)CC1Cc1ccc(Cl)cc1 (configuration not stated)
24 | 133 to 135 | CCCn1c(NC(=O)c2ccccc2)nc2ccccc2c1=O

Row | melting point [°C] | SMILES
25 | 271 to 272 | Cc1c(Cc2cccc(C(F)(F)F)c2)sc2c(-c3cc(C(=O)O)ccn3)cccc12
26 | 127 to 133 | O=C(CCCN1CCOCC1)Nc1cccc(-c2ccnc3c(C(=O)c4cccs4)cnn23)c1
27 | 137 to 138 | CCCN(CCC)[C@H]1Cc2c[nH]c3ccc(C(=O)NN)c(c23)C1
28 | 293 to 295 | Nc1ncc(-c2cc(Cl)c([N+](=O)[O-])c(Cl)c2Cl)c(N)n1
29 | 157 to 159 | CCC(C)N1CC(C)=CC2=C1N1CN(OC)C=C1N=N2 (configuration not stated)
30 | 78 to 79 | CCCCNC(=O)Oc1ccc(C(O)(CC)c2ccc(Cl)cc2)cc1 (configuration not stated)
31 | > 260 | O=C1CCC2=C1C(c1ccc(Br)c(Br)c1)C1=C(CCS1)N2 (configuration not stated)
32 | 181 to 183 | O=[N+]([O-])c1ccccc1COc1ccc2ncc3c(c2c1)C(O)CCC3 (configuration not stated)
33 | 141 to 143 | CC1(C)Oc2ccc3nc(Cl)ccc3c2C(NCCc2ccccc2)C1O (configuration not stated)
34 | 55 | OC(CCCCBr)(c1ccc(F)cc1)c1ccc(F)cc1
35 | 180 to 182 | CCC1CCN(Cc2ccc(COc3cccc4c3CN(C3CCC(=O)NC3=O)C4=O)cc2)CC1 (configuration not stated)
36 | 175 | Oc1ncnc2nc(CC3CCN(CC4COc5ccccc5O4)CC3)n(Cc3ccc(F)cc3)c12 (configuration not stated)
37 | 259 | O=C(NN=CC=Cc1ccc([N+](=O)[O-])o1)c1cc2ccccc2cc1O
38 | 75 | Cc1nc2c(OCc3c(Cl)ccc(S(=O)(=O)N4CCC[C@H]4C(=O)NCCCN)c3Cl)cccn2c1Br
39 | 296 to 298 | CC1(C)CC(=O)Nc2cc3nc(-c4ccccc4)[nH]c3cc21
40 | 118 to 119 | Cc1cc(C)cc(Sc2c(C(C)C)nc(C=NN)n2C)c1
41 | 185 to 187 | CCC[C@H]1C(=O)N(S(=O)(=O)c2cccc3ccccc23)[C@H]2CCN(S(C)(=O)=O)[C@H]12 (relative stereo)
42 | 164 to 166 | CC(=O)c1cn(S(=O)(=O)c2ccccc2)c2nccc(OCc3ccccc3)c12
43 | 105 | Cc1cc(-n2ccnc2)c2cccc(OCc3c(Cl)ccc(S(=O)(=O)N4CCC[C@H]4C(=O)NCCN4CCCC4)c3Cl)c2n1
44 | 172 to 173 | COC(=O)c1cc(NC(=O)COc2ccccc2)c2cc(Cc3ccc(F)cc3)cnc2c1O
45 | 126 to 129 | CCOC(=O)Cc1ccc(-c2nc(COc3ccc(COc4nn(-c5ccccc5)cc4/C=C/c4coc(C(C)(C)C)n4)cc3OC)c(C)o2)cc1
46 | 236 to 238 | O=C(O)c1ccc(OCC2CN(c3ccc([N+](=O)[O-])cc3)C(=O)O2)cc1 (configuration not stated)
47 | 270 to 271 | CCOC(=O)CCCCCOc1cc2ccc(-c3ccc(C(=O)O)cc3)cc2cc1C12CC3CC(CC(C3)C1)C2
48 | 198 to 201 | CCC(=O)Nc1c(N)cc(Br)cc1OCc1ccccc1

Row | melting point [°C] | SMILES
49 | 167 to 169 | CCN(C)c1nc2cc(NC(=O)c3c(C(=O)N4CCOCC4)cnn3C)ccn2n1
50 | 153 to 155 | O=C(O)c1ccc(C(c2ccccc2)(C(F)(F)F)C(F)(F)F)cc1
51 | 146 to 147 | CC(C)Cn1c(=O)n(C)c(=O)c2c(CCCCC(=O)O)n(Cc3cccc4ccccc34)cc21
52 | 138 to 139 | COc1ccc2c(c1)C(CCNC(=O)C(F)(F)F)=C(c1ccccc1)C2
53 | 69 to 71 | CC(C)(CC(=O)Oc1ccccc1C(C)(C)C)NS(=O)(=O)C(F)(F)F
54 | 132 to 135 | COC=C(C(=O)OC)c1c(OC)ncnc1Oc1cccc(COc2ccccc2C#N)c1
55 | 69 to 70 | O=C1C=CCC(CCc2ccc(Cl)cc2Cl)O1 (configuration not stated)
56 | 144 to 145 | CC(=O)OCc1cc(=O)n2ccsc2n1
57 | 215 | CNc1ccccc1C(=O)c1c(OC)cc(C)cc1OC
58 | 131 to 133 | CCCCc1nc(Cl)c(C(N)=O)n1Cc1ccc2oc(-c3ccccc3-c3nnn[nH]3)c(Br)c2c1
59 | 259 to 260 | COc1cn(-c2ccc(N3CCNC3=O)cc2F)nc(-c2ccnn2-c2ccccc2)c1=O
60 | 148 to 150 | COCN(COC)c1ccn2nc(-c3ccccc3)c(-c3ccc(=O)n(C(C)C)n3)c2c1
61 | 127 to 128 | COc1cccc(-c2coc3ccc(-c4nnc(C)o4)cc23)c1
62 | 115 to 126 | Cc1ccc(CSC[C@H](NC(=O)[C@H](C)CSC(=O)c2ccccc2)C(=O)O)cc1
63 | 141 to 143 | Nc1ccc(Sc2ccnc(N)c2)cc1
64 | 119 to 120 | CC1=C(c2ccc(C(=O)N3Cc4cccn4Cc4ccccc43)cc2)CCCC1
65 | 43 to 46 | CS(=O)(=O)NCCCCCC1CCSS1 (configuration not stated)
66 | 207 to 209 | COc1nc(C)nc(NC(=O)NS(=O)(=O)c2ccccc2-n2nnnc2C)n1
67 | 176 to 178 | O=C1N=NC(c2nc(Cl)c(Cl)[nH]2)=N1
68 | 177 to 178 | COc1nc(NC(=O)NS(=O)(=O)c2ccccc2CCC(F)(F)F)nc(OC)n1
69 | 122 to 124 | COC(=O)C(Oc1ccc(CCCCCCCl)cc1)c1ccc(Sc2ccc(Cl)cc2)cc1 (configuration not stated)
70 | 173 to 176 | CN(N)C(=O)NC1c2ccccc2Oc2ccccc21
71 | 143 to 144 | CC(C)Oc1cccc(N(C)C(=O)N(C)Cc2c(-c3ccccc3)c3cc(Cl)ccc3c(=O)n2C)c1
72 | 79 to 81 | CCCCCCCCCCc1ccnc(C(=O)NCC(=O)O)c1

Row | melting point [°C] | SMILES
73 | 200 to 202 | O=C1OC(c2cccc(C(F)(F)F)c2)=NC1=Cc1cccs1
74 | 186 to 187 | O=S(=O)(N[C@H](CO)C(CC(F)(F)F)CC(F)(F)F)c1ccc(Cl)cc1
75 | 103 to 105 | CCNc1ncn(CC)c2nc(C3CC3)nc1-2
76 | 140 to 141 | COC(=O)C1(C(=O)O)CCc2cc(C3CCCCCC3)ccc21 (configuration not stated)
77 | 198 to 200 | COc1ccccc1NC(=O)C1=C(O)c2ccc3ccccc3c2S(=O)(=O)N1C
78 | 141 to 143 | [N-]=[N+]=NC1CCc2ccccc2N(c2ccccc2)C1=O (configuration not stated)
79 | 168 to 170 | C=CCOc1ccc(-c2ccc(O)cc2)cc1
80 | 268 to 269 | CCn1cc(C(=O)O)c(=O)c2ccc(-c3cccnc3)cc21
81 | 103 to 105 | CC(C)C(C(=O)O)c1ccc(O)c([N+](=O)[O-])c1 (configuration not stated)
82 | 290 to 292 | O=c1[nH]nc(-c2ccccc2)c(-c2ccccc2)c1-c1ccccc1
83 | 166 to 167 | Cc1n[nH]c(=O)c(-c2c(F)cccc2Cl)c1-c1ccc(Cl)nc1
84 | 154 | C=CCc1cc2c(c(CC=C)c1O)CCC(=O)N2c1ccc(OC)cc1
85 | 134 to 136 | CCOC(=O)CS(=O)(=O)C=C1SC=CS1
86 | 42 to 45 | CCOC(=O)CC(=O)Nc1cc(F)cc(F)c1
87 | 180 to 181 | COc1cc(CC(=O)NCCOc2ccc(C(=O)O)cc2OC)ccc1NC(=O)Nc1ccccc1C
88 | 150 to 156 | CCc1nn(C2CN(C(C)C)C2)c(C(N)=O)c1N
89 | 174 to 175 | O=C1N(Cc2ccc(Cl)s2)c2ccccc2C1(O)c1cc(OCc2ccccc2)ccc1O (configuration not stated)
90 | 229 to 233 | Cc1cccc(-c2n[nH]cc2-c2ccc(F)c(-c3c[nH]cn3)c2)n1
91 | 125 to 127 | Cc1ccc(S(=O)(=O)O[C@@H]2C[C@@H](C(=O)NC(C)(C)C)N(C(=O)OC(C)(C)C)C2)cc1
92 | 134 to 135 | Cc1oc(-c2ccccc2)nc1COc1ccc(/C=C/CO)cc1
93 | 114 to 115 | CCCN(CCC)C(=O)Nc1nn(Cc2ccccc2)cc1C(=O)OCC

Row | SMILES | melting point [°C]
94 | CN(C(=O)C1CC1)c1cccc(-c2ccnc3c(C(=O)c4ccco4)cnn23)c1 | 207 to 209
95 | CNC(=O)Oc1ccc(NC(=O)C(Cl)Cl)c(C)c1 | 199 to 201
96 | Cc1cc(C)cc(Sc2c(C(C)C)nc(CCOC(N)=O)n2C)c1 | 138 to 140
97 | Cc1cccc(NC(=O)NC2CN(CC(=O)N3CC4CCC(CC4)C3)c3c(C)cccc3C(c3ccccc3F)=N2)c1 (configuration not stated) | 246 to 247
